From patent US10905761B2, “Use of a lipopeptide or lipoprotein as an adjuvant in therapeutic or prophylactic vaccinations” (HELMHOLTZ-ZENTRUM FUER INFEKTIONSFORSCHUNG GMBH, priority 2002, dated 2021)

Columns and labels:
Format in all cases: in vivo
BALB/c (H-2d) mice [1] = test system: BALB/c (H-2d) mice
BALB/c (H-2d) mice [2] = experiment: β-Galactosidase-specific T-cell proliferation of spleen and regional lymph node cells of immunized mice (Example 7); conditions: day 31
Procedure: The cells were restimulated in vitro with various concentrations of soluble β-galactosidase for four days. The results are shown as average cpm subtracted from the background values for unstimulated cells from groups of three. The SEM is depicted by vertical lines.
Lymph nodes located below the lower jaw and the spleens were removed and put together for the analysis of the cellular immune responses. The cells were grown in RPMI 1640 supplemented by 10% fetal calf serum, 10 U/ml penicillin, 50 μg/ml streptomycin, 5×10^−5 M 2-mercaptoethanol and 1 mM L-glutamine (GIBCO BRL, Karlsruhe, Germany) and stored at 37° C. in a moist atmosphere with 5% CO2. The suspensions of lymph node and spleen cells were adjusted to 5×10^6 cells/ml in complete medium and put in a flat-bottomed 96-well microtiter plate (Nunc) with 100 μl/well, and the plates were incubated in the presence of various concentrations of soluble β-galactosidase for 4 days. Each concentration was tested in groups of three. During the last 18 hours of the incubation, 1 ρCi of [^3H]thymidine (Amersham International, Freiburg, Germany) was added to each well. The cells were then harvested on filter paper (Filtermat A; Wallac, Freiburg, Germany) using a cell harvester (Inotech, Wohlen, Switzerland), and the amount of incorporated [^3H]thymidine in the DNA of the proliferated cells was determined with the aid of a […] (Wallac 1450, Micro-Trilux). The results have been shown as the arithmetic mean of the uptake of [^3H]thymidine in cpm.

BALB/c (H-2d) mice [3] = experiment: Kinetics of β-gal-specific IgG responses in sera of mice immunized i.n. or i.p. (Example 4); conditions: pure β-galactosidase 50 μg/dose i.n.; after a second boost
Procedure: Groups of animals (n=5) were immunized either i.n. (A) or i.p. (B) with 50 μg of β-gal ( ), β-gal plus 10 μg of CTB ( ), β-gal plus 0.5 μg of MALP-2 ( ) or pure buffer solution ( ). The days of the immunizations (day 0, 14 and 21) are marked by arrows. The results are shown as the reciprocal log2 of the geometric endpoint titer, and the SEM […] is indicated by means of vertical lines.
Six- to eight-week old female BALB/c (H-2d) mice were purchased from Harlan Winkelmann GmbH (Borchen, Germany) and treated in accordance with local and EU directives. Groups each of 5 mice were immunized on day 1, 14 and 21 either with 40 μg of pure β-galactosidase (Boehringer, Mannheim, Germany) with admixture of 0.5 μg of synthetic MALP-2 or 10 μg of cholera toxin B subunit (CTB; ICN Biomedicals Inc., Ohio) as standard adjuvant. For intranasal administration (i.n.), 10 μl were administered into each nostril, while for the i.p. injection β-galactosidase was resuspended with or without MALP-2 in 400, 100 or 100 μl of PBS. Serum samples were taken at various times (day 0, 13, 20 and 30) and stored at −20° C. until the β-galactosidase-specific antibodies were determined. Nunc-Immuno MaxiSorp assay plates with 96 wells (Nunc, Roskilde, Denmark) were coated with 100 μl of β-gal (Boehringer, Mannheim, Germany) with 5 μg/ml in 0.05 M […] (pH 8.2) per well. Serial two-fold dilutions of the sera or lavages in PBS with 1% BSA and 0.05% Tween-20 were added (100 μl/well) and the plates were incubated at 37° C. for 24 hours. After rinsing, biotinylated γ chain-specific goat anti-mouse IgG (Sigma Chemie, Deisenhofen, Germany) was added, and the plates were incubated at 37° C. for a further hour. After rinsing four times, 100 μl of peroxidase-conjugated streptavidin (Pharmingen) were added to the […], and the plates were incubated at 37° C. for 30 minutes. After rinsing four times, the reactions were developed by means of ABTS in 0.1 M citrate-phosphate buffer (pH 4.35) which contained 0.01% H2O2.

BALB/c (H-2d) mice [4] = experiment: β-Galactosidase-specific IgA in lung and vaginal lavages of mice immunized i.n. (Example 5); conditions: i.n. immunization; day 31
Procedure: The results are shown as percentage of β-galactosidase-specific IgA in relation to the total IgA present. The SEM is indicated by vertical lines.
The mice were sacrificed on day 31, and the final samples were taken. Vaginal and lung lavages were obtained by rinsing the organs with 1 ml of PBS supplemented by 50 mM EDTA, 0.1% BSA and 10 mM PMSF. The lavages were then centrifuged in order to remove tissue detritus (10 min at 3000×g) and the remaining liquid was stored at −20° C. In order to determine the total IgA concentration in the rinsings from lung and vagina, serial dilutions of the corresponding samples were incubated in microtiter plates, these plates having previously been coated with goat anti-mouse IgA (Sigma Chemie) as capture antibody (100 μl/well). Serial dilutions of purified mouse IgA (Sigma Chemie) were used to produce a standard plot.

BALB/c (H-2d) mice [5] = experiment: β-Galactosidase-specific IgG isotypes in the serum of immunized mice (ELISA, Example 8); conditions: average ± SEM, 5 mice per group
[6] = mice immunized i.p. with pure β-galactosidase

Substance | IL-10 content in supernatants of spleen cells stimulated in vitro (BALB/c (H-2d) mice [1]; mice immunized i.n., β-gal restimulation) | Th1 cytokines IL-2 and IFN-γ secreted by restimulated cells (BALB/c (H-2d) mice [1]; [6]) | secretion of IL-10 and IL-4 by restimulated cells (BALB/c (H-2d) mice [1]; [6]) | proliferation of lymph node and spleen cells after in vitro restimulation with β-galactosidase (BALB/c (H-2d) mice [2]; i.n. immunization) | proliferation of spleen cells after in vitro restimulation with β-galactosidase (BALB/c (H-2d) mice [2]; i.p. immunization) | β-galactosidase-specific antibody endpoint titer in serum (BALB/c (H-2d) mice [3]) | β-galactosidase-specific IgA in lung rinsings (BALB/c (H-2d) mice [4]) | β-Galactosidase-specific IgG1 in serum (BALB/c (H-2d) mice [5]; i.n.) | β-Galactosidase-specific IgG2a in serum (BALB/c (H-2d) mice [5]; i.n.) | β-Galactosidase-specific IgG2b in serum (BALB/c (H-2d) mice [5]; i.n.) | β-Galactosidase-specific IgG3 in serum (BALB/c (H-2d) mice [5]; i.n.) | β-Galactosidase-specific IgG1 in serum (BALB/c (H-2d) mice [5]; i.p.) | β-Galactosidase-specific IgG2a in serum (BALB/c (H-2d) mice [5]; i.p.) | β-Galactosidase-specific IgG2b in serum (BALB/c (H-2d) mice [5]; i.p.) | β-Galactosidase-specific IgG3 in serum (BALB/c (H-2d) mice [5]; i.p.)
CTB [reference compound] | 0.6 ng/mL | – | – | – | – | – | – | – | – | – | – | – | – | – | –
β-gal: model antigen β-galactosidase administered pure, without adjuvant | – | below the limit of detection | stimulated | no detectable cell proliferation | significant proliferation response | about 1000 | no production of β-galactosidase-specific IgA in detectable quantity | 22.6 ± 21.3 µg/mL | 0.7 ± 0.5 µg/mL | 0.3 ± 0.1 µg/mL | 0.6 ± 0.0 µg/mL | 191.5 ± 132.1 µg/mL | 0.1 ± 0.0 µg/mL | 0.5 ± 0.1 µg/mL | 0.6 ± 0.0 µg/mL
